Experimental data as given in paper PMC6742646, “Extensive disruption of protein interactions by genetic variants across the allele frequency spectrum in human populations” (Nature Communications, 2019).

Target: T1, AKR7A2 (Homo sapiens, UniProt O43488)
T1 construct: hORFeome ORF cloned EcoRI/XhoI in pET-6xHis-SUMO; E. coli Rosetta; cobalt purified, His-SUMO tag cleaved with Ulp1, FPLC; dimer in solution
Assay: NADPH-dependent SSA reduction, absorbance plate assay
Assay type: biochemical
Conditions: 0.5 mM NADPH, sodium phosphate pH 8.0, 37 °C; SSA 0.50-3.5 mM; only kcat/KM printed

T1 sequence (O43488 whole entry): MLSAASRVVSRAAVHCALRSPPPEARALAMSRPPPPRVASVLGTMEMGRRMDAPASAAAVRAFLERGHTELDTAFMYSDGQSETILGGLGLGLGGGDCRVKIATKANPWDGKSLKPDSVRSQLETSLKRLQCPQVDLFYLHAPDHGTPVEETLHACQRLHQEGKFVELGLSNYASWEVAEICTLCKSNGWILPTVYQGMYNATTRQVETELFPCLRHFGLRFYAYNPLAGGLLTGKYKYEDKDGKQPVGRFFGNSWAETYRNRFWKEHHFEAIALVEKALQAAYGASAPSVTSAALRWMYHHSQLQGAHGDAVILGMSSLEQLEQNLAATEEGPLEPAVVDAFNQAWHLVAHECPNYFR

O=CCCC(=O)O [succinic semialdehyde]
NADPH-dependent SSA reduction, absorbance plate assay: we purified recombinant WT and mutant AKR7A2 protein to test for changes in NADPH-dependent turnover
